# Like-named read-outs stand apart in the source and are kept apart here.
# Experiments:
# [1] = Distribution coefficient (LogD7.4), shake flask method; assay type: physicochemical; conditions: n-octanol / phosphate buffer 0.1 M pH 7.4; n = 3
# Description: LogD7.4 values were measured using the shake flask method. Briefly, an aliquot of ^18F-labeled tracer was added to a vial containing 2.5 mL of n-octanol and 2.5 mL of phosphate buffer (0.1 M, pH 7.4). The mixture was vortexed for 2 min and then centrifuged at 3,000g for 10 min. A sample of the n-octanol (0.1 mL) and buffer (0.1 mL) layers was counted using a γ-counter. Values of LogD7.4 were calculated using the following equation: LogD7.4 = log10 [(counts in n-octanol phase)/(counts in buffer phase)].
# PSMA = target: T1, PSMA (Homo sapiens, UniProt Q04609); experiment: In vitro competition binding assay on LNCaP cells with ^18F-DCFPyL as radioligand
# T1 construct: because it expresses PSMA endogenously and is commonly used to evaluate PSMA-targeting radiotracers; endogenous in cells; host or cells: LNCaP cells
# Description: LNCaP cells were plated onto a 24-well poly-D-lysine coated plate for 48 h (400,000/well). […] Nonspecific binding was determined in the presence of 10 μM unlabeled DCFPyL. The assay mixtures were incubated for 1 h at 37°C with gentle agitation followed by 2 washes with cold HEPES buffered saline. A trypsin solution (0.25%, 400 μL) was then added to each well to harvest the cells. Radioactivity was measured by γ-counting, and Ki values were calculated using the “1 site—fit Ki” built-in model in Prism 7 (GraphPad).
# LNCaP xenografts = experiment: Ex vivo biodistribution and blocking studies in mice bearing LNCaP xenografts; conditions: for tumor uptake compared with ^18F-DCFPyL: 1-way ANOVA, Dunnett test; for tumor uptake: LNCaP tumor
# Description: Imaging and biodistribution experiments were performed using NODSCID IL2RγKO male mice. All experiments were conducted according to the guidelines established by the Canadian Council on Animal Care and approved by the Animal Ethics Committee of the University of British Columbia. Mice were anesthetized by inhalation with 2% isoflurane in oxygen and implanted subcutaneously with 1 × 10^7 LNCaP cells behind the left shoulder. The mice were imaged or used in biodistribution studies once the tumor reached 5–8 mm in diameter (5–6 wk).
# For biodistribution and blocking studies, the mice were injected with 1–3 MBq of radiotracer. At 60 min, the mice were anesthetized with 2% isoflurane inhalation and euthanized by CO2 inhalation. Blood was withdrawn by cardiac puncture, and the organs and tissues of interest were collected, weighed, and counted using an automatic γ-counter (PerkinElmer). Uptake values were expressed as the percentage of the injected dose per gram of tissue (%ID/g).
# A standard 1-way ANOVA was performed to determine whether statistically significant differences in tumor uptake occurred between radiotracers. Each radiotracer was compared with ^18F-DCFPyL using the Dunnett test (a many-to-one t test comparison). This analysis was also performed for kidney and blood activity and for tumor-to-blood and tumor-to-muscle ratios. Reported P values were adjusted for multiple comparisons. The analysis was performed using Prism 8 (GraphPad). […]
# Statistical analyses were performed using GradPad prism 7. Multiple t tests were performed to compare biodistribution in unblocked and blocked mice, multiple comparisons were corrected using the Holm-Sidak method. The difference was considered statistically significant when p value was < 0.05.
# Supplemental Table 1 – Complete biodistribution study for compounds [18F]1–3 […]
# Tissue 1h 1h blocked 1h 1h blocked 1h 1h blocked
# (%ID/g) n = 8 n = 4 n = 6 n = 4 n = 8 n = 5 […]
# (1 picture or pasted object on this page, not shown here)
# [2] = 1 h blocked (coinjection of DCFPyL 0.5 mg)
# T1 sequence (Q04609 whole entry): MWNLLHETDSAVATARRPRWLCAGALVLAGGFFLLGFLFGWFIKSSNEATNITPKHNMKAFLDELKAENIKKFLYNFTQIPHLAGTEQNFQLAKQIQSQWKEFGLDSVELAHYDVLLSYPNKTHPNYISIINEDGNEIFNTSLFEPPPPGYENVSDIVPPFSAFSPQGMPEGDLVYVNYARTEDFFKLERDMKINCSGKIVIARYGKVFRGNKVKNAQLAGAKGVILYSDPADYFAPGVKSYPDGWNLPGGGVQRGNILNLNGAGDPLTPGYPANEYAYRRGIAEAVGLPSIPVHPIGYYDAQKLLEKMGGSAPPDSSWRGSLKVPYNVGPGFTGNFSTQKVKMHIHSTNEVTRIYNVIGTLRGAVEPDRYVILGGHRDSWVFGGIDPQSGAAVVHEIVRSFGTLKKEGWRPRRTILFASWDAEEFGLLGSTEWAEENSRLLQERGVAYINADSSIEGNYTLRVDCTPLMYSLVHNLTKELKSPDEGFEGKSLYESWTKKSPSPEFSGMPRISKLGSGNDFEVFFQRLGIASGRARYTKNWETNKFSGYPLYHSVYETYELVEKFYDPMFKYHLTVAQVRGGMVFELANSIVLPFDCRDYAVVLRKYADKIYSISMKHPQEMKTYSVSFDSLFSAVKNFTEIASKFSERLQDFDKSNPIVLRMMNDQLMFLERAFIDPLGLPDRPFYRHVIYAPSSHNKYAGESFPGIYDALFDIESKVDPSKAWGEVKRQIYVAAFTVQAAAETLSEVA
compound,measurement,setting,value
C[N+](C)(Cc1ccc(C(=O)NCCCC[C@H](NC(=O)N[C@@H](CCC(=O)O)C(=O)O)C(=O)O)cc1)C[B-](F)(F)F [^18F-1],LogD7.4,[1],−3.43 ± 0.35
same,Ki,"PSMA; LNCaP cells, 0.1 nM ^18F-DCFPyL radioligand, 1 h at 37°C, n = 3",14.4 ± 2.7 nM
same,T/B (tumor-to-blood ratio),"LNCaP xenografts; 1 h after injection, unblocked",10.82 ± 1.64
same,T/K (tumor-to-kidney ratio),"LNCaP xenografts; 1 h after injection, unblocked",0.07 ± 0.06
same,T/M (tumor-to-muscle ratio),"LNCaP xenografts; 1 h after injection, unblocked",23.43 ± 3.71
same,adrenal uptake,"LNCaP xenografts; 1 h after injection, unblocked",4.77 ± 1.75 %ID/g
same,blood uptake,"LNCaP xenografts; 1 h after injection, unblocked",0.57 ± 0.15 %ID/g
same,bone uptake,"LNCaP xenografts; 1 h after injection, unblocked",0.36 ± 0.02 %ID/g
same,brain uptake,"LNCaP xenografts; 1 h after injection, unblocked",0.04 ± 0.01 %ID/g
same,fat uptake,"LNCaP xenografts; 1 h after injection, unblocked",0.99 ± 0.39 %ID/g
same,heart uptake,"LNCaP xenografts; 1 h after injection, unblocked",0.30 ± 0.06 %ID/g
same,intestine uptake,"LNCaP xenografts; 1 h after injection, unblocked",0.54 ± 0.11 %ID/g
same,kidney uptake,"LNCaP xenografts; 1 h after injection, unblocked",114.00 ± 41.30 %ID/g
same,liver uptake,"LNCaP xenografts; 1 h after injection, unblocked",2.90 ± 0.56 %ID/g
same,lung uptake,"LNCaP xenografts; 1 h after injection, unblocked",1.37 ± 0.36 %ID/g
same,muscle uptake,"LNCaP xenografts; 1 h after injection, unblocked",0.26 ± 0.08 %ID/g
same,pancreas uptake,"LNCaP xenografts; 1 h after injection, unblocked",0.55 ± 0.16 %ID/g
same,spleen uptake,"LNCaP xenografts; 1 h after injection, unblocked",2.67 ± 0.98 %ID/g
same,stomach uptake,"LNCaP xenografts; 1 h after injection, unblocked",0.12 ± 0.05 %ID/g
same,testes uptake,"LNCaP xenografts; 1 h after injection, unblocked",0.62 ± 0.15 %ID/g
same,tumor uptake compared with ^18F-DCFPyL,LNCaP xenografts; 1 h after injection,lower tumor uptake than ^18F-DCFPyL
same,T/B (tumor-to-blood ratio),LNCaP xenografts; [2],0.91 ± 0.44
same,T/K (tumor-to-kidney ratio),LNCaP xenografts; [2],0.10 ± 0.03
same,T/M (tumor-to-muscle ratio),LNCaP xenografts; [2],2.63 ± 1.10
same,adrenal uptake,LNCaP xenografts; [2],0.35 ± 0.14 %ID/g
same,blood uptake,LNCaP xenografts; [2],0.45 ± 0.27 %ID/g
same,bone uptake,LNCaP xenografts; [2],0.30 ± 0.07 %ID/g
same,brain uptake,LNCaP xenografts; [2],0.03 ± 0.01 %ID/g
same,fat uptake,LNCaP xenografts; [2],0.14 ± 0.08 %ID/g
same,heart uptake,LNCaP xenografts; [2],0.15 ± 0.04 %ID/g
same,intestine uptake,LNCaP xenografts; [2],0.57 ± 0.23 %ID/g
same,kidney uptake,LNCaP xenografts; [2],3.54 ± 0.83 %ID/g
same,liver uptake,LNCaP xenografts; [2],3.00 ± 0.53 %ID/g
same,lung uptake,LNCaP xenografts; [2],0.25 ± 0.06 %ID/g
same,muscle uptake,LNCaP xenografts; [2],0.13 ± 0.03 %ID/g
same,pancreas uptake,LNCaP xenografts; [2],0.11 ± 0.03 %ID/g
same,spleen uptake,LNCaP xenografts; [2],0.13 ± 0.03 %ID/g
same,stomach uptake,LNCaP xenografts; [2],0.11 ± 0.08 %ID/g
same,testes uptake,LNCaP xenografts; [2],0.10 ± 0.02 %ID/g
same,tumor uptake,"LNCaP xenografts; 1 h after injection, unblocked",6.0 ± 1.2 %ID/g
same,tumor uptake,"LNCaP xenografts; 1 h after injection, unblocked, listed as [18F]1",6.04 ± 1.24 %ID/g
same,tumor uptake,LNCaP xenografts; [2],0.33 ± 0.07 %ID/g
C[N+](C)(Cc1cn(Cc2ccc(C(=O)NCCCC[C@H](NC(=O)N[C@@H](CCC(=O)O)C(=O)O)C(=O)O)cc2)nn1)C[B-](F)(F)F [^18F-2],logD at 2 min,[1],-4.26 ± 0.04
same,Ki,PSMA,11.8 ± 0.9 nM
same,T/B (tumor-to-blood ratio),"LNCaP xenografts; 1 h after injection, unblocked",15.95 ± 1.37
same,T/K (tumor-to-kidney ratio),"LNCaP xenografts; 1 h after injection, unblocked",0.12 ± 0.04
same,T/M (tumor-to-muscle ratio),"LNCaP xenografts; 1 h after injection, unblocked",37.30 ± 9.53
same,adrenal uptake,"LNCaP xenografts; 1 h after injection, unblocked",4.65 ± 1.75 %ID/g
same,blood uptake,"LNCaP xenografts; 1 h after injection, unblocked",0.52 ± 0.06 %ID/g
same,bone uptake,"LNCaP xenografts; 1 h after injection, unblocked",0.44 ± 0.09 %ID/g
same,brain uptake,"LNCaP xenografts; 1 h after injection, unblocked",0.04 ± 0.01 %ID/g
same,fat uptake,"LNCaP xenografts; 1 h after injection, unblocked",0.73 ± 0.26 %ID/g
same,heart uptake,"LNCaP xenografts; 1 h after injection, unblocked",0.33 ± 0.08 %ID/g
same,intestine uptake,"LNCaP xenografts; 1 h after injection, unblocked",0.33 ± 0.05 %ID/g
same,kidney uptake,"LNCaP xenografts; 1 h after injection, unblocked",71.70 ± 18.0 %ID/g
same,liver uptake,"LNCaP xenografts; 1 h after injection, unblocked",1.69 ± 0.19 %ID/g
same,lung uptake,"LNCaP xenografts; 1 h after injection, unblocked",1.39 ± 0.17 %ID/g
same,muscle uptake,"LNCaP xenografts; 1 h after injection, unblocked",0.23 ± 0.04 %ID/g
same,pancreas uptake,"LNCaP xenografts; 1 h after injection, unblocked",0.33 ± 0.05 %ID/g
same,spleen uptake,"LNCaP xenografts; 1 h after injection, unblocked",5.01 ± 0.64 %ID/g
same,stomach uptake,"LNCaP xenografts; 1 h after injection, unblocked",0.10 ± 0.03 %ID/g
same,testes uptake,"LNCaP xenografts; 1 h after injection, unblocked",0.67 ± 0.17 %ID/g
same,tumor uptake compared with ^18F-DCFPyL,LNCaP xenografts; 1 h after injection,No statistically significant differences
same,T/B (tumor-to-blood ratio),LNCaP xenografts; [2],0.77 ± 0.48
same,T/K (tumor-to-kidney ratio),LNCaP xenografts; [2],0.13 ± 0.02
same,T/M (tumor-to-muscle ratio),LNCaP xenografts; [2],2.66 ± 1.60
same,adrenal uptake,LNCaP xenografts; [2],0.20 ± 0.05 %ID/g
same,blood uptake,LNCaP xenografts; [2],0.46 ± 0.24 %ID/g
same,bone uptake,LNCaP xenografts; [2],0.30 ± 0.06 %ID/g
same,brain uptake,LNCaP xenografts; [2],0.02 ± 0.00 %ID/g
same,fat uptake,LNCaP xenografts; [2],0.06 ± 0.01 %ID/g
same,heart uptake,LNCaP xenografts; [2],0.09 ± 0.02 %ID/g
same,intestine uptake,LNCaP xenografts; [2],0.31 ± 0.02 %ID/g
same,kidney uptake,LNCaP xenografts; [2],2.11 ± 0.19 %ID/g
same,liver uptake,LNCaP xenografts; [2],1.76 ± 0.17 %ID/g
same,lung uptake,LNCaP xenografts; [2],0.22 ± 0.03 %ID/g
same,muscle uptake,LNCaP xenografts; [2],0.12 ± 0.05 %ID/g
same,pancreas uptake,LNCaP xenografts; [2],0.06 ± 0.01 %ID/g
same,spleen uptake,LNCaP xenografts; [2],0.09 ± 0.03 %ID/g
same,stomach uptake,LNCaP xenografts; [2],0.06 ± 0.02 %ID/g
same,testes uptake,LNCaP xenografts; [2],0.08 ± 0.02 %ID/g
same,tumor uptake,"LNCaP xenografts; 1 h after injection, unblocked, listed as 2",8.3 ± 1.3 %ID/g
same,tumor uptake,"LNCaP xenografts; 1 h after injection, unblocked, listed as [18F]2",8.28 ± 1.25 %ID/g
same,tumor uptake,LNCaP xenografts; [2],0.27 ± 0.06 %ID/g
"O=C(O)CCC(NC(=O)NC(CCCCNC(=O)c1ccc([18F])nc1)C(=O)O)C(=O)O (centres unmarked) [^18F-DCFPyL, 2-(3-{1-carboxy-5-[(6-[^18F]fluoro-pyridine-3-carbonyl)-amino]-pentyl}-ureido)-pentanedioic acid, reference compound]",logD at 2 min,[1],-3.12 ± 0.22
same,adrenal uptake,"LNCaP xenografts; 1 h after injection, unblocked",3.02 ± 2.14 %ID/g
same,blood uptake,"LNCaP xenografts; 1 h after injection, unblocked",0.60 ± 0.13 %ID/g
same,bone uptake,"LNCaP xenografts; 1 h after injection, unblocked",0.33 ± 0.07 %ID/g
same,brain uptake,"LNCaP xenografts; 1 h after injection, unblocked",0.03 ± 0.01 %ID/g
same,fat uptake,"LNCaP xenografts; 1 h after injection, unblocked",1.05 ± 0.64 %ID/g
same,heart uptake,"LNCaP xenografts; 1 h after injection, unblocked",0.35 ± 0.12 %ID/g
same,intestine uptake,"LNCaP xenografts; 1 h after injection, unblocked",0.33 ± 0.07 %ID/g
same,kidney uptake,"LNCaP xenografts; 1 h after injection, unblocked",123.76 ± 37.67 %ID/g
same,liver uptake,"LNCaP xenografts; 1 h after injection, unblocked",1.82 ± 0.24 %ID/g
same,lung uptake,"LNCaP xenografts; 1 h after injection, unblocked",1.62 ± 0.68 %ID/g
same,muscle uptake,"LNCaP xenografts; 1 h after injection, unblocked",0.29 ± 0.12 %ID/g
same,pancreas uptake,"LNCaP xenografts; 1 h after injection, unblocked",0.58 ± 0.32 %ID/g
same,spleen uptake,"LNCaP xenografts; 1 h after injection, unblocked",3.98 ± 2.35 %ID/g
same,stomach uptake,"LNCaP xenografts; 1 h after injection, unblocked",0.12 ± 0.03 %ID/g
same,testes uptake,"LNCaP xenografts; 1 h after injection, unblocked",0.57 ± 0.21 %ID/g
same,tumor uptake,"LNCaP xenografts; 1 h after injection, unblocked",11.64 ± 3.52 %ID/g

# — paper PMC6681697, “One-Step ^18F-Labeling and Preclinical Evaluation of Prostate-Specific Membrane Antigen Trifluoroborate Probes for Cancer Imaging” (Journal of Nuclear Medicine, 2019)
